Test results: paper PMC5781198 (Influenza and Other Respiratory Viruses, 2013)
“Also recorded” adds a separate entry of the source.

Key:
[1] = test system: A/Alberta/RV1242/2011 NA (H275H/Y, D199D/N); format: biochemical, Influenza A(H1N1)pdm09 virus
[2] = test system: A/Santiago/14689/2011 NA (N325K); format: biochemical, Influenza A(H1N1)pdm09 virus
[3] = biological target: B/Dominican Republic/5506/2011 NA (H273Y) (Influenza B virus, UniProt P27907, H272Y); format: biochemical, Influenza B virus (Victoria)
[4] = biological target: B/Ontario/1256/2011 NA (G140R, N144K) (Influenza B virus, UniProt P27907, G140R/N143K); format: biochemical, Influenza B virus (Victoria)
[5] = biological target: B/Ontario/006876/2011 NA (H273Y) (Influenza B virus, UniProt P27907, H272Y); format: biochemical, Influenza B virus (Yamagata)
[6] = test system: A/Vietnam/108/2011 NA (F174V); format: biochemical, Influenza A(H1N1)pdm09 virus
[7] = test system: A/Santiago/15706/2011 NA (G460S); format: biochemical, Influenza A(H1N1)pdm09 virus
[8] = test system: A/Dominican Republic/5507/2011 NA (S247N); format: biochemical, Influenza A(H1N1)pdm09 virus
[9] = test system: A/Puerto Rico/05/2011 NA (D199N); format: biochemical, Influenza A(H1N1)pdm09 virus
[10] = test system: A/Bolivia/258/2011 NA (D199N); format: biochemical, Influenza A(H1N1)pdm09 virus
[11] = test system: A/Bolivia/603/2011 NA (D151G); format: biochemical, Influenza A(H3N2) virus
[12] = biological target: B/Guatemala/16/2011 NA (S244P) (Influenza B virus, UniProt P27907, S243P); format: biochemical, Influenza B virus (Victoria)
[13] = test system: B/Bangladesh/4013/2011 NA (A136S); format: biochemical, Influenza B virus (Victoria)
[14] = biological target: B/Bangladesh/8008/2011 NA (I120V) (Influenza B virus, UniProt P27907, I119V); format: biochemical, Influenza B virus (Victoria)
[15] = biological target: B/Kenya/9528/2011 NA (M403V) (Influenza B virus, UniProt P27907, M402V); format: biochemical, Influenza B virus (Victoria)
[16] = test system: B/British Columbia/RV1383/2011 NA (T106N); format: biochemical, Influenza B virus (Yamagata)
[17] = test system: B/Ontario/006876/2011 NA (H273Y); conditions: cited from earlier work

Structure (SMILES): CCC(CC)[C@H](NC(C)=O)[C@@H]1[C@H](O)[C@@H](C(=O)O)C[C@H]1N=C(N)N [Peramivir, peramivir]
- IC50 relative to isolate A/Puerto Rico/09/2011 (dominant H275Y) [1]: approximately threefold less; also recorded: three times less resistant
- susceptibility in words [2]: mildly reduced sensitivity
- fold difference in IC50 [3]: 12·43 (15) fold
- fold greater IC50 than the mean IC50 for the drug for all B viruses [3]: 16 fold
- fold difference in IC50 [4]: 210·68 (257) fold
- fold greater IC50 than the mean IC50 for the drug for all B viruses [4]: 277 fold
- susceptibility in words [4]: significantly reduced susceptibility
- fold difference in IC50 [5]: 33·49 (62) fold
- fold greater IC50 than the mean IC50 for the drug for all B viruses [5]: 44 fold
- fold difference in IC50 [6]: 0·06 (1) fold
- fold difference in IC50 [7]: 0·26 (4) fold
- fold difference in IC50 [8]: 0·15 (3) fold
- fold difference in IC50 [9]: 0·21 (4) fold
- fold difference in IC50 [10]: 0·09 (2) fold
- fold difference in IC50 [11]: 0·08 (1) fold
- fold difference in IC50 [12]: 0·60 (1) fold
- susceptibility in words [12]: sensitive
- fold difference in IC50 [13]: 4·77 (6) fold
- fold difference in IC50 [14]: 4·36 (5) fold
- fold difference in IC50 [15]: 3·59 (4) fold
- fold difference in IC50 [16]: 0·85 (2) fold
- susceptibility in words [17]: reduced susceptibility

Structure (SMILES): CC(=O)N[C@H]1[C@H]([C@H](O)[C@H](O)CO)OC(C(=O)O)=C[C@@H]1N=C(N)N [Zanamivir, zanamivir]
- susceptibility in words [2]: mildly reduced sensitivity
- susceptibility in words [4]: significantly reduced susceptibility
- susceptibility in words [12]: mild outlier
